# US20170112748A1, “N-ACYLPEPTIDE DERIVATIVES AND THEIR USES” (NeoStrata Company, Inc., priority 2012, published 2017)
# Peptide text beside a SMILES is read from it.
# Legend:
# [1] = system: MB231 breast cancer cells; settings: summary table
# Method: A typical in vitro screen for anti-tumor or anti-cancer effects was carried out as follows.
# An aliquot of 2,000 MB231 breast cancer cells (breast carcinoma cells) in 100 μl DMEM complete media (Sigma Chemical Co.) was plated in a 96 well plate containing at a concentration of 20 μg/ml a test substance or control water. To measure proliferation of the cancer cells, an aliquot of 20 μl of MTS reagent (Promega Co.) was added to each well and the cells were incubated at 37° C. for a total of three days. The cells rapidly metabolized MTS reagent and the metabolized MTS reagent was measured at 490 nm at the end of days 1, 2 and 3. The reading was proportional to the number of cancer cells. The decrease in absorbance at each time point indicated fewer cancer cells. At the end of day 3, the decrease in absorbance with respect to the control indicated the inhibition by the test substance.
# [2] = knee osteoarthritis, intra-articular injections; format: in vivo, human; settings: for duration of relief of pains / period of diminished edema and inflammation of the knees and lower legs / time after injection until pains in both knees disappeared: Example 18: subject; for duration of relief of pains / period of diminished edema and inflammation of the knees and lower legs: intra-articular 1 mg each knee; for time after injection until pains in both knees disappeared: intra-articular 1 mg each knee (-OH 1% in water 0.1 ml; -OEt 0.2% with 1% methyl cellulose 0.5 ml)
# Method: A subject had severe osteoarthritis of both knees for more than four years. Prior therapy had included intra-articular injections of corticosteroids and hyaluronic acid as well as celecoxib (Celebrex) orally (200 mg) twice daily. Such therapy had provided only mild transitory relief of knee pain and edema, and edema of lower legs.
# Intra-articular injections of 1% (w/v) N-Ac-L-Tyr-L-Tyr-L-Tyr-OH in water, 0.1 ml (1 mg) as prepared in Example 4 were administered to each knee. The pains in both knees disappeared about 20-30 minutes after the injections, and the relief of pains lasted for 24 hours. Edema and inflammation of the knees and lower legs had diminished for approximately the same 24 hour period. Repeat injections of the same composition were administered once a week for several weeks to provide continued relief of pain, edema and inflammation.
# In another trial, intra-articular injections of 0.2% (w/v) N-Ac-L-Tyr-L-Tyr-L-Tyr-OEt with 1% (w/v) methyl cellulose in water, 0.5 ml (1 mg) as prepared in Example 4 were also administered to each knee at different times. The pains in both knees disappeared about 20-30 minutes after the injections, and the relief of pains lasted for 24 hours. Edema and inflammation of the knees and lower legs had diminished for approximately the same 24 hour period.
# A subject had osteoarthritis of both knees for more than four years. […] Intra-articular injections of each knee with N-Ac-L-Tyr-L-Tyr-L-Tyr-OH, 7-13 mg in aqueous solution had provided substantial relief of pain in the joints for 2-3 days.
# (§1) In yet another embodiment, the volunteer subject injected intra-articularly into a knee joint a test composition containing a N-acylpeptide derivative of the present invention to improve and reduce arthritic inflammation and pain of the joint.
# [3] = knee osteoarthritis, topical maintenance therapy; format: in vivo, human; settings: Example 25: subject, 1% (w/v) in EP73 topically 2-3 times daily on skin covering the knee areas
# Excerpt: (§2) In yet another embodiment, the volunteer subject topically applied once or twice daily the test compositions containing N-acylpeptide derivatives of the present invention on the skin site above arthritic joints or painful muscles to provide therapeutic effects for the systemic disorders via topical administration.
# [4] = skin plump / skin thickness test after topical application, caliper measurement; format: in vivo, human; settings: for increased skin thickness: 1% (w/v) in WEP442 three times daily
# Method: In one of the studies related to skin changes associated with aging, skin thickness was measured by micrometer calipers as follows.
# The skin was grasped with a 2×6 cm metal hinge: the internal faces of which were coated with emery cloth to prevent slippage, and manually squeezed to threshold subject discomfort. Combined thickness of two whole-skin layers including thickness of the two hinge leaves was measured with micrometer calipers. Thickness of the two hinge leaves was subtracted to determine the actual thickness of two whole-skin layers. Triplicate measurements on treated sites were done and an average number was used for calculation of the skin thickness.
# In other studies, test sites of skin 17 mm in diameter were used, the circular sites were marked with permanent ink. Intervening control sites were also 17 mm in diameter. Thickness of skin of all sites was measured directly by means of an electronic digital caliper. In this instance the jaws of the caliper were opened to 17 mm, applied with pressure to the skin sites and then closed to firm tightness. Thickness of skin was then read off the screen of the calipers. Measurements of all sites were made in triplicates. […]
# [5] = summary of test results in volunteer subjects, efficacy grades; format: in vivo, human; settings: efficacy grade
# Excerpt: Subject 1. Person had multiple red and itchy inflammation, dermatitis, or eczema lesions, which were resistant to conventional treatments including corticosteroids. Subject 2. Person had small red and itchy lesions which were resistant to topical corticosteroid treatment. Subject 3. Person had multiple red and itchy inflammation, dermatitis, or eczema lesions over the body for many years, which were resistant to conventional treatments including corticosteroids. Subject 4. Person had red and itchy inflammation, dermatitis, or eczema lesions for many years, which were resistant to topical corticosteroid treatment. Subject 5. Person had early stage of aging related skin changes on both forearms as indicated by age spots and wrinkled skin caused by solar damage. Subject 6. Person had age spots, keratoses and wrinkles on both forearms caused by intrinsic and extrinsic aging. Subject 7. Person had age spots, and wrinkles on both forearms caused by intrinsic and extrinsic aging. Subject 8. Person had osteoarthritis of both knees with inflammation and pain for more than 4 years, and had only mild transitory relief from conventional treatments. Subject 9. Person had sensitive skin with inflammatory lesions on the body. Subject 12. Person had dermatitis and inflammatory lesions on the left palm. Subject 14. Person had multiple age spots including lentigines and keratosis on their face. Subject 15. Person had psorisis Subject 16. Person had sensitive skin and eczema for more than 40 years
# In another embodiment, the volunteer subject topically applied the test compositions containing N-acylpeptide derivatives of the present invention on involved skin or lesions once or twice daily for several weeks or until the involved lesions completely cleared and clinically changed to normal skin. As a control study, the subject also topically applied a vehicle control composition on the involved skin or lesions twice daily for the same period.
# as §2, §1
# Some test results are summarized as follows.
# DK: Disturbed keratinization AG: Aging related changes of skin, nail and hair DI: Deranged immune disorders and inflammation ND: Nerve disorders CA: Tumors and/or cancers
# [6] = topical treatment of bilateral inter-metacarpal atrophy of hands; format: in vivo, human; settings: Example 23: subject, 2% (w/v) in EP73 two to three times daily, three weeks
# Excerpt: A subject had bilateral inter-metacarpal atrophy of both hands with certain restrictions of hand movements. The subject topically applied two to three times daily N-Ac-L-Tyr-L-Tyr-L-Tyr-OEt, 2% (w/v) in EP73 on the back of their left hand, and vehicle control EP73 on the back of their right hand for three weeks.
# The subject now, topically applied twice daily N-Ac-L-Tyr-L-Tyr-L-Tyr-NH2, 1% (w/v) in WEP442 on the back of their left hand as a mantenace therapy.
# [7] = topical treatment of telangiectatic rosacea, clinical evaluation; format: in vivo, human; settings: Example 22: subject, face, 1% (w/v) in WEP442 twice daily, two weeks
# Excerpt: A subject had rosacea on their face with erythema, inflammation and dilated blood vessels, described as telangiectatic rosacea. The subject topically applied twice daily N-Ac-L-Tyr-L-Tyr-L-Tyr-OEt, 1% (w/v) in WEP442 for two weeks. At the end of two weeks, the erythema and inflammation had diminished, and improvement in rduced size of telangiectatic blood vessels was discernible. The rosacea lesions had approximately 25% improvement as judged by clinical evaluation.
# [8] = topical treatment of chronic inflammation, erythema, eczema with thick scales and itch, clinical evaluation; format: in vivo, human; settings: Example 10: subject, -NH2 0.3% and -OEt 0.5% (w/v) in WEP442
# Excerpt: The involved skin was divided into two lesions for testing. The subject topically applied twice daily to one lesion, N-Ac-L-Tyr-L-Tyr-L-Tyr-NH2 0.3% (w/v) in WEP442, pH 5.9 solution composition, prepared according to Example 2, and to second lesion, N-Ac-L-Tyr-L-Tyr-L-Tyr-OEt 0.5% (w/v) in WEP 442, pH 6.0, prepared according to Example 2. […] The treated skin had 90-95% improvement as judged by clinical evaluation.
# [9] = skin thickness after intradermal injection on the forearms; format: in vivo, human; settings: Example 15: subject, intradermal 0.05 ml (0.5 mg) of 1% in water, after 8 days
# Method: In other studies, test sites of skin 17 mm in diameter were used, the circular sites were marked with permanent ink. Intervening control sites were also 17 mm in diameter. Thickness of skin of all sites was measured directly by means of an electronic digital caliper. In this instance the jaws of the caliper were opened to 17 mm, applied with pressure to the skin sites and then closed to firm tightness. Thickness of skin was then read off the screen of the calipers. Measurements of all sites were made in triplicates.
# A typical systemic administration by intradermal injection was carried out as follows. A subject, injected intradermally on the forearms the following N-acylpeptide derivative of the present invention:
# (a). N-Ac-L-Tyr-L-Tyr-L-Tyr-OH, 0.05 ml (0.5 mg) of 1% in water, after 8 days, there was 10-20% increase in skin thickness of 6 mm size skin at the injection site: effective for aging skin. (b). N-Ac-L-Ala-L-Leu-L-Lys-L-His-L-Arg-NH2 (SEQ ID NO: 51), 0.05 ml (0.5 mg) of 1% in water. (c). N-Bz-L-Ala-L-Leu-L-Lys-L-His-L-Arg-NH2 (SEQ ID NO: 65), 0.05 ml (0.5 mg) of 1% in water. (d). N-Ac-(EEASPEAVAGVGFESK)-NH2 (SEQ ID NO: 126), 0.1 ml (0.4 mg) of 0.4% in water.
# [10] = urination (diuretic effect) after topical application on forehead; format: in vivo, human; settings: Example 17: subject, 0.2% in WEP442 on forehead, about one hour later; repeated next day with same result
# Excerpt: The subject then topically applied N-Ac-L-Tyr-L-Tyr-L-Tyr-OH, 0.2% in WEP442 on their forehead. […] The subject repeated the same procedure the next day, and obtained the same result.
compound,measurement,setting,value
CC(=O)N[C@@H](CCC(=O)O)C(=O)N[C@@H](CCC(=O)O)C(=O)N[C@@H](C)C(=O)N[C@@H](CO)C(=O)N1CCC[C@H]1C(=O)N[C@@H](CCC(=O)O)C(=O)N[C@@H](C)C(=O)N[C@H](C(=O)N[C@@H](C)C(=O)NCC(=O)N[C@H](C(=O)NCC(=O)N[C@H](C(=O)N[C@@H](CCC(=O)O)C(=O)N[C@@H](CO)C(=O)N[C@@H](CCCCN)C(N)=O)c1ccccc1)C(C)C)C(C)C [N-Ac-(EEASPEAVAGVGBESK)-NH2] (HELM PEPTIDE1{[ac].E.E.A.S.P.E.A.V.A.G.V.G.[Phg].E.S.K.[am]}$$$$V2.0),CA (Tumors and/or cancers),[1],9% Inhibition
N-Ac-L-Tyr-L-Tyr-L-Tyr-OEt,duration of relief of pains,[2],24 h
same,period of diminished edema and inflammation of the knees and lower legs,[2],~24 h
same,time after injection until pains in both knees disappeared,[2],20 to 30 min
same,knee joint pain under maintenance therapy,[3],continued relief of knee joint pains
same,increase in skin thickness,"[4]; Example 9: subject, severe photodamage, forearm spots, 0.5% (w/v) in WEP721 (spot A in WEP442) four times daily, 10 days",20-30%
same,increase in skin thickness,"[4]; Example 19: subject, right extensor forearm, 0.8% (w/v) in WEP442 three times daily, four weeks",approximately 33%
same,skin condition of test site vs vehicle control,"[4]; Example 20: subject, photoaging forearms, 0.5% (w/v) in WEP442 three times daily, four weeks","palpably raised, smooth, less wrinkled and increased in skin thickness"
same,increased skin thickness,"[4]; Example 20: subject, photoaging forearms, four weeks",approximately 12%
same,skin thickness on the back of left hand (average),"[4]; Example 24: subject, 2% (w/v) in EP73 two to three times daily, six weeks, starting thickness 1.70 mm",2.59 mm
same,increase over the starting skin thickness,"[4]; Example 24: subject, back of left hand, 2% (w/v) in EP73 two to three times daily, six weeks",52%
same,"AG: Aging related changes of skin, nail and hair",[5],3+ (3+: 75% Efficacy)
same,DI: Deranged immune disorders and inflammation,[5],3+ (3+: 75% Efficacy)
same,DK: Disturbed keratinization,[5],3+ (3+: 75% Efficacy)
same,ND: Nerve disorders,[5],4+ (4+: 95-100% Efficacy)
same,inter-metacarpal atrophy of left hand,[6],disappeared almost completely
same,improvement of rosacea lesions as judged by clinical evaluation,[7],approximately 25%
same,itch,[8],stopped within a few minutes
N-Ac-L-Tyr-L-Tyr-L-Tyr-OH,duration of relief of pains,[2],24 h
same,period of diminished edema and inflammation of the knees and lower legs,[2],~24 h
same,time after injection until pains in both knees disappeared,[2],20 to 30 min
same,duration of substantial relief of pain in the joints,"[2]; Example 25: subject, intra-articular 7-13 mg in aqueous solution each knee",2 to 3 days
same,increased skin thickness,"[4]; Example 21: subject, sun damaged forearms, one week",approximately 29%
same,"AG: Aging related changes of skin, nail and hair",[5],2+ (2+: 50% Efficacy)
same,DI: Deranged immune disorders and inflammation,[5],3+ (3+: 75% Efficacy)
same,DK: Disturbed keratinization,[5],2+ (2+: 50% Efficacy)
same,ND: Nerve disorders,[5],3+ (3+: 75% Efficacy)
same,increase in skin thickness of 6 mm size skin at the injection site,[9],10-20%
same,urination,[10],urge for urination
